# From PubChem BioAssay AID365 (MTDP, 2006)
# pIC50: −log10 of the molar value. Activity calls are given as the source filed them. How the calls were made is not given here.
# Target: Ribonuclease HI (Escherichia coli (strain K12)) (UniProt P0A7Y4)
# Assay: E. coli RNase HI inhibitors, dose response, biochemical, FRET RNA/DNA duplex cleavage (AID 365)
# Details: E. coli RNase H, FRET RNA/DNA cleavage fluorescence
# Chain of Ribonuclease HI (Escherichia coli (strain K12)) (P0A7Y4 whole entry, looked up): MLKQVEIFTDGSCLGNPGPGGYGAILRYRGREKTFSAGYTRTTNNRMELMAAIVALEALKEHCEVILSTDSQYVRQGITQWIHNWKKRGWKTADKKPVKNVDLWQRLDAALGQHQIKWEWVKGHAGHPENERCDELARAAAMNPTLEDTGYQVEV
Compound,IC50,pIC50
COC(=O)c1cc2c3c(ccc2[nH]1)N(C(=O)c1cc2c4c(ccc2[nH]1)N(C(=O)c1cc2c5c(ccc2[nH]1)N(C(N)=O)CC5)CC4)CC3,inactive,–
CC(C)=CCC/C(C)=C/Cc1cc(/C=C/c2cc(O)c(C/C=C(\C)CCC=C(C)C)c(O)c2)cc(O)c1O,–,5.77
Cc1cc(O)c2c(c1O)C(=O)C13C(=C2O)C(=O)C2C(O)C1C1C(O)C3C(=O)C3=C(O)c4c(O)cc(C)c(O)c4C(=O)C321 (stereo not given),inactive,–
Cc1ccc(C)n1-c1ccc(O)c(C(=O)O)c1,> 100 µM (inactive),–
O=C1c2cc([N+](=O)[O-])ccc2-c2ccc3c4ccc5c6c(ccc(c7ccc1c2c73)c64)C(=O)c1cc([N+](=O)[O-])ccc1-5,–,5.74
Cc1sc2nc(-c3ccc([N+](=O)[O-])cc3)[nH]c(=O)c2c1C,–,5.80
CN1CC(O)C2=CC(=O)C(=O)C=C21 (stereo not given),> 100 µM (inactive),–
O=c1[nH]c2[nH]c(=S)[nH]c(=S)c2[nH]1,> 100 µM (inactive),–
O=C1C=C(NCCc2cc(Br)c(O)c(Br)c2)C(=O)c2ncccc21,inactive,–
O=C1C=CC(=NS(=O)(=O)c2ccc(Cl)c([N+](=O)[O-])c2)C=C1,–,5.15
O=C1c2ccccc2C(=O)N1c1ccc(-c2nc3ccc(N4C(=O)c5ccccc5C4=O)cc3[nH]2)cc1,–,5.30
CCCc1cc(=O)oc2c3c(c4c(c12)OC(C)(C)C=C4)O[C@@H](C)[C@H](C)[C@@H]3F,–,5.15
COc1cc([C@@H]2c3cc4c(cc3C[C@H]3COC(=O)[C@@H]32)OCO4)cc(OC)c1O,–,5.62
COc1ccc2c(c1)N(C(=O)CN1C(=O)c3ccccc3C1=O)C(C)(C)c1ssc(=S)c1-2,inactive,–
CC(C)=Cc1cc(CCC/C(C)=C/Cc2c(O)cc(C)c(C(=O)O)c2O)co1,inactive,–
CCC(=O)Nc1sc2c(c1C(=O)Nc1ccc(OC)cc1)CCCCC2,–,5.05
Cc1ccc(S(=O)(=O)/N=C2\C=C(Sc3ncn[nH]3)C(=O)c3ccccc32)cc1,inactive,–
COc1ccc(C(=O)NC(=S)Nc2ccc3nn(-c4ccc(C)c(Cl)c4)nc3c2)cc1[N+](=O)[O-],inactive,–
Cc1sc(NC(=O)Cc2ccccc2)c(C(N)=O)c1C,inactive,–
Cc1sc(NC(=O)c2cccc([N+](=O)[O-])c2)c(C(N)=O)c1C,–,6.15
N#C/C(=C\Nc1ccc(S(=O)(=O)Nc2nccs2)cc1)c1nc(-c2ccc(Cl)cc2)cs1,–,5.92
O=C(O)C1CCCCC1c1c2ccc(=O)c(O)c-2oc2c(O)c(O)ccc12 (stereo not given),–,5.70

Compound,IC50,pIC50
O=C1CC(=O)c2ccc3c4c(ccc1c24)C(=O)CC3=O,–,5.28
O=c1[nH]c(=S)n(-c2ccccc2F)c(O)c1C=C1C=CC=N1,–,6.10
COc1ccc2oc(=O)c(-c3csc(Nc4ccc(Br)cc4)n3)cc2c1,–,5.55
Cc1onc(-c2ccccc2)c1C(=O)Nc1sc(C)c(C)c1C(N)=O,inactive,–
Cc1cccc(NC(=O)c2c(NC(=O)c3ccc([N+](=O)[O-])cc3)sc3c2CCCC3)c1,–,6.55
O=C1/C(=C/c2ccc(O)c(O)c2)SC(=S)N1C1CCCCC1,–,5.52
COc1cc(-c2[o+]c3cc(O)cc(O)c3cc2O)cc(O)c1O,inactive,–
C=C(C)[C@@H]1CCc2c(O)c(O)c(=O)cc(C)c2C1,inactive,–
C[C@]12CC[C@H]3[C@@H](CCC4=CC(=O)CC[C@@]43C)[C@@H]1CC[C@@H]2C(=O)COS(=O)(=O)c1ccc(Br)cc1,inactive,–
C[C@H]1[C@H](O)c2c(c3c(c4c(-c5ccccc5)cc(=O)oc24)OC(C)(C)C=C3)O[C@@H]1C,> 100 µM (inactive),–
Cc1c(Cl)ccc2c1NC(C(=O)O)C1CC=CC21 (stereo not given),–,5.17
CCc1c(O)c2c(c(O)c1C(C)=O)C(=O)c1c(cc(O)c(C(=O)O)c1C(=O)O)C2=O,> 100 µM (inactive),–
COc1cc(C)cc2c(-c3c(O)cc(O)c4c3C[C@@H](C)N[C@@H]4C)cc(-c3cc(-c4c(O)cc(O)c5c4C[C@@H](C)N[C@@H]5C)c4cc(C)cc(OC)c4c3O)c(O)c12,–,5.92
Cc1ccc(NC(=O)c2c(NC(=O)C(F)(F)F)sc(-c3ccccc3)c2C)c(C)c1,–,5.09
COc1ccccc1N=C(NOCc1ccc(Cl)cc1Cl)c1nonc1N,inactive,–
C=CC1=C(C)C2=NC1=CC1=NC(=CC3=C(C)C4=C(O)C(C(=O)OC)C(=C5NC(=C2)C(C)C5CCC(=O)OC/C=C(\C)CCCC(C)CCCC(C)CCCC(C)C)C4=N3)C(CC)=C1C (stereo not given),> 100 µM (inactive),–
Cc1cc(Cl)ccc1OCC(=O)Nc1sc(C)c(C)c1C(N)=O,–,5.92
CC(C)=CCc1ccc(O)c(=O)cc1C(C)C,–,4.00
COc1ccc(-c2c(C#N)c(N)nc(SCC(=O)c3ccc(O)c(O)c3)c2C#N)cc1,–,6.22
Ic1ccc2c(c1)N(c1ccccc1)c1cc(N=c3ccc4nc5ccc(I)cc5n(-c5ccccc5)c-4c3)ccc1N2,–,5.39
C[C@@H]1Oc2c3c(c4c(-c5ccccc5)cc(=O)oc4c2C(=O)[C@H]1C)OC(C)(C)C=C3,–,5.38
O=C1C(Cl)=C/C(=N\S(=O)(=O)c2ccccc2)C(Cl)=C1Cl,inactive,–

Compound,IC50,pIC50
CCOc1ccc(N2C(=O)/C(=C/c3ccc(I)o3)C(=O)NC2=S)cc1,–,5.62
O=C1c2ccc(O)cc2C(=O)c2c1ccc(O)c2O,inactive,–
Cc1ccc(-n2c(/C=C/c3ccc(O)c(O)c3)nc3ccccc3c2=O)cc1,–,5.30
COC(=O)c1c(N)sc(C(=O)Nc2ccc(OC)cc2)c1C,inactive,–
CC(C)=CCC(O)C1=CC(=O)c2c(O)ccc(O)c2C1=O (stereo not given),inactive,–
O=S(=O)(Nc1cccc(C(F)(F)F)c1)c1ccc2ccccc2c1,inactive,–
O=C(NC(=S)Nc1cc(-c2nc3ccccc3s2)ccc1Cl)c1ccc(F)cc1,–,5.22
CC1=c2c(oc3cc(O)c(Nc4c(C)cc(O)cc4O)c(C)c23)=CC(=O)C1=Nc1c(C)cc(O)cc1O,–,5.28
Nc1nc(Sc2ccc([N+](=O)[O-])c3nonc23)c2[nH]cnc2n1,> 100 µM (inactive),–
Cc1cc(Br)ccc1N1C(=O)/C(=C/c2ccco2)C(=O)NC1=S,–,6.70
O=C(Cc1ccccc1Cl)c1ccc(O)c(O)c1O,inactive,–
Oc1cc(CN2COc3ccccc32)c(O)cc1CNC1CCCCC1,> 100 µM (inactive),–
Cc1sc(NC(=O)c2ccco2)c(C(N)=O)c1C,inactive,–
COC([CH2][Hg][n]1cnc2c1c(=O)n(C)c(=O)n2C)CN1C(=O)c2ccccc2S1(=O)=O (stereo not given),inactive,–
C=C/C(C)=C/C[C@]1(C)[C@H](C)CC[C@@]23C(=C[C@H](OC(=O)c4ccc(O)c(OC)c4)C[C@@H]12)[C@@H](OC(C)=O)O[C@H]3OC(C)=O,inactive,–
COc1ccc(N2C(=O)/C(=C/c3ccc(I)o3)C(=O)NC2=S)cc1,–,5.52
Cc1ccc(C=C2C(=O)NC(=S)N(c3ccccc3Cl)C2=O)o1,inactive,–
C=C1C(=O)O[C@@H]2/C=C(\C)CC/C=C(\C(=O)O)CC/C=C(\C)CC[C@H]12,> 100 µM (inactive),–
Cc1ccc(C(=O)NC(=S)Nc2ccc(-c3nc4ccccc4s3)cc2)cc1[N+](=O)[O-],–,5.43
CCOC(=O)Oc1c(OC)cc(C(=O)O[C@@H]2C[C@@H]3CN4CCc5c([nH]c6cc(OC)ccc56)[C@H]4C[C@@H]3[C@H](C(=O)OC)[C@H]2OC)cc1OC,> 100 µM (inactive),–
C=CC(C)(C)C12CC3C(=O)N/C(=C\c4cnc[nH]4)C(=O)N3C1Nc1ccccc12 (stereo not given),> 100 µM (inactive),–
